Reference: US20040092491A1, “Method of treating sepsis-induced ARDS” (The Research Foundation of State University of New York, priority 2002, published 2004)
“Also recorded” adds a separate entry of the source. Where a name gives a salt, the structure may show the parent alone.

Legend:
[1] = single dose of two 100 mg minocycline HCl tablets, adult humans; cited from earlier work
[2] = system: neutrophil elastase; conditions: LPS-induced acute lung injury, guinea pig; cited from earlier work
[3] = system: lung tissue; assay: Porcine SMA+FC model: morphometric analysis of lung tissue and lung water; type: in vivo, pigs
From the text: (§4) A sepsis-induced ARDS porcine model was developed. […] In addition, the protocol included a 3-day termination period, due to the severity of the ARDS associated with this model and the desire to obtain clinically relevant end-point data on all animals.

[4] = system: IL-10; assay: Porcine SMA+FC model: IL-10 concentration in BALF; design: species or system pigs; conditions: pig, in vivo
From the text: (§5) In addition, the protocol included a 3-day termination period, due to the severity of the ARDS associated with this model and the desire to obtain clinically relevant end-point data on all animals.

[5] = biological target: T1, MMP-9 (Sus scrofa, UniProt A0A287AZD5); assay: Porcine SMA+FC model: MMP-9 in BALF; design: species or system pigs; conditions: pig, in vivo
T1 construct: from tissue; host or cells: pig bronchoalveolar lavage fluid (BALF)
From the text: as §4

[6] = system: interleukin-6; assay: Porcine SMA+FC model: interleukin-6 concentration in BALF; design: species or system pigs; conditions: pig, in vivo
From the text: as §4

[7] = system: neutrophil elastase; assay: Porcine SMA+FC model: BALF elastase activity; design: species or system pigs; conditions: pig, in vivo
From the text: as §4

[8] = system: IL-8; assay: Porcine SMA+FC model: IL-8 concentration in BALF; design: species or system pigs; conditions: pig, in vivo
From the text: as §4

[9] = Porcine SMA+FC model: BALF protein concentration; design: species or system pigs; conditions: pig, in vivo
From the text: as §5

[10] = system: pulmonary edema; assay: Rat CLP model: lung water (W/D weight ratio); type: in vivo, Sprague-Dawley rats
Method: (§1) Experimental Protocol: Rats were randomly divided into 5 groups: GROUP 1) Sham CLP+2% solution of carboxymethylcellulose (CMC; vehicle for COL-3) in saline-midline laparotomy with cecum exposed and mesentery sharply incised plus oral gavage at the time of surgery with CMC (n=6); GROUP 2) Sham CLP+COL-3 (Collagenex Pharmaceutical, Newtown, Pa.)-midline laparotomy with cecum exposed and mesentery sharply incised plus oral gavage at the time of surgery with COL-3 (30 mg/kg, n=6); GROUP 3) CLP+CMC-midline laparotomy with CLP plus oral gavage at time of surgery with CMC (n=10); GROUP 4) CLP+COL-3 single dose [SD]-midline laparotomy with CLP plus oral gavage at the time of surgery with COL-3 (30 mg/kg, n=9); GROUP 5) CLP+COL-3 multiple dose [MD]-midline laparotomy with CLP plus oral gavage at the time of surgery and at 24 hours post CLP with COL-3 (30 mg/kg each administration for a total dose of 60 mg/kg, n=15). Rats were followed for 168 hours (7 days) with survival defined as hours post-CLP and survival time of each rat recorded. Rats were sacrificed at 168 hours or immediately following death. At necropsy, the left lung was excised and its bronchus cannulated. The lung was inflated to a pressure of 4 cmH2O with 10% formalin. The cannula was clamped and the lung stored in formalin at room temperature for 24 hours. The tissue was blocked in paraffin and serial sections made for staining with hematoxylin and eosin. Additionally, the remaining paraffin section of fixed lung was used for immunohistochemical determination of MMP-2 and MMP-9.
Lung Water: Representative tissue samples from the right lung were sharply dissected free of nonparenchymal tissue. Samples were placed in a dish and weighed, dried in an oven at 65° C. for 24 h and weighed again. This was repeated until there was no weight change over a 24-h period at which time the samples were determined to be dry. Lung water was expressed as a wet to dry weight ratio (W/D).

[11] = system: lung tissue; assay: Rat CLP model: lung histology; type: in vivo, Sprague-Dawley rats
Method: (§2) Surgical Procedure: Male Sprague-Dawley rats weighing between 250-300 g were acclimatized to the laboratory environment for one week prior to surgery. Free access to food and water was available for this time period. Rats were anesthetized with intraperitoneal (IP) Ketamine (90 mg/kg)/Xylazine (10 mg/kg ). Sepsis was produced using a modification of the cecal ligation and puncture (CLP) technique described by Chaudry et al. After the abdominal fur was shaved, a 2 cm midline incision was made through the skin and peritoneum. The cecum was identified and withdrawn through the incision. The avascular portion of the mesentery was sharply incised and the cecum was ligated just below the ileocecal valve with a 3-0 silk suture, so that intestinal continuity was maintained. Using an 18 gauge needle, the cecum was perforated in two locations on the antimesenteric surface and was gently compressed until feces were extruded to ensure patency of the holes. The bowel was then returned to the abdomen and the incision was closed in 2 layers using 3-0 Prolene™ for the muscle and 2-0 silk for the skin. Each rat received 10 cc physiological saline subcutaneously immediately after the procedure and at 12 and 24 hours post-surgery. The rats were allowed to recover with water and food provided ad libitum throughout the remainder of the study.
as §1
Histology: The lung tissue in each slide preparation was evaluated without knowledge of the treatment group from which it came. The slides were reviewed at low magnification for an overview to exclude sections containing bronchi, connective tissue, large blood vessels, and areas of confluent atelectasis, so that only regions reflecting the degree and stage of parenchymal injury would be evaluated. The areas of the slides which were not excluded were assessed at high magnification (400×) in the following manner. Five high power fields (HPF) were randomly sampled. […] Specifically, alveolar wall thickening, defined as greater than two cell layers thick, was graded as “0” (absent) or “1” (present) in each field. Intra-alveolar edema fluid, defined as homogenous or fibrillar proteinaceous staining within the alveoli, was graded as “0” (absent) or “1” (present) in each field. A total score/5HPF for alveolar wall thickening and intra-alveolar edema fluid was recorded for each animal. […]

[12] = system: sepsis-induced ARDS (cecal ligation and puncture); assay: Rat cecal ligation and puncture (CLP) model of sepsis-induced ARDS: survival; type: in vivo, Sprague-Dawley rats; conditions: for Mortality at 168 hours (7 days): CLP+CMC 70%
Method: as §2, §1
Statistical analysis: Survival rates were evaluated using the Kaplan and Meier method and the significance was determined by the generalized Wilcoxon method. Differences between groups were analyzed by one-way analysis of variance. When the F ratio indicated significance, a Newman-Keul test was used to identify individual differences. A p value less than 0.05 was considered significant. Correlations between COL-3 concentration and survival, COL-3 concentration and MMP-2 and MMP-9 levels and levels of MMP-2 and MMP-9 and survival were determined by simple linear regression analysis.

[13] = system: sepsis-induced ARDS (SMA+FC); assay: Porcine fecal clot + SMA clamping sepsis-induced ARDS model: pulmonary function
[14] = system: MMP-9; assay: Rat CLP model: lung tissue MMP-9 level by immunohistochemistry; type: in vivo, Sprague-Dawley rats
Method: as §1
(§3) Lung tissue MMP-2 and MMP-9 levels: The levels of alveolar tissue MMP-2 and MMP-9 was assessed by immunohistochemical analysis as described elsewhere. Briefly, four micrometer formalin fixed paraffin sections were treated with xylene to remove paraffin and hydrated. The paraffin sections were treated with 0.4% pepsin for 45 minutes at +37° C. For immunostaining VECTASTAIN™ Rabbit ABC Elite Kit (Vector Laboratories, Burlingame, Calif.) was used according to manufactures instructions. […]

[15] = system: MMP-2; assay: Rat CLP model: lung tissue MMP-2 level by immunohistochemistry; type: in vivo, Sprague-Dawley rats
Method: as §1, §3

[16] = system: Interleukin-1; assay: Porcine SMA+FC model: Interleukin-1 concentration in BALF; type: in vivo, pigs; conditions: between groups
From the text: as §5

[17] = Porcine SMA+FC model: blood COL-3 concentration
[18] = system: microbes; conditions: based on steady-state pharmacokinetics; cited from earlier work
[19] = 250 mg every six hours over a twenty-four hour period; cited from earlier work
[20] = morphometric analysis of lung tissue
[21] = CLP+COL-3 (MD) vs CLP+CMC and CLP+COL-3 (SD)
[22] = COL-3 administration, dose dependent fashion, vs CLP+CMC

T1 sequence (A0A287AZD5 19-708): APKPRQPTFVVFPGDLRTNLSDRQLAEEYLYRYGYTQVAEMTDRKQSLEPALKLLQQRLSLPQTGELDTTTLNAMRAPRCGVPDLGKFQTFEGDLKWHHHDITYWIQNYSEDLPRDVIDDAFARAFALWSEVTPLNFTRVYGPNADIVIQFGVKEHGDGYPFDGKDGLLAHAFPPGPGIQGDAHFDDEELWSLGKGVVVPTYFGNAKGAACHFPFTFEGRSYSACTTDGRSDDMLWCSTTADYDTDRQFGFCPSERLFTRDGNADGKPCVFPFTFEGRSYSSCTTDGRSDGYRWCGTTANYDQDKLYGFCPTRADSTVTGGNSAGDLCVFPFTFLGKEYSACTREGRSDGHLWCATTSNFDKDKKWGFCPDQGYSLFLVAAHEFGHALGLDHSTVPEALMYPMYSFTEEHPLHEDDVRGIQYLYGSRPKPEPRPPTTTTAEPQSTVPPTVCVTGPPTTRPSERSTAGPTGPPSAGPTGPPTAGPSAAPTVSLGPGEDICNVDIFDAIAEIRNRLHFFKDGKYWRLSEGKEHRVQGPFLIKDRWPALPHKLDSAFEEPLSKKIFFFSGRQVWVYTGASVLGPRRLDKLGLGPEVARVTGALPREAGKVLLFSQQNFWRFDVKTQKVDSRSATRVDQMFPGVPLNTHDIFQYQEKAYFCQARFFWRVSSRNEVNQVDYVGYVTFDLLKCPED

CN(C)c1ccc(O)c2c1C[C@H]1C[C@H]3[C@H](N(C)C)C(O)=C(C(N)=O)C(=O)[C@@]3(O)C(O)=C1C2=O [minocycline HCl]
Average minocycline serum level [1]: 2.24 µg/mL

CC(C)(C)C(=O)Oc1ccc(S(=O)(=O)Nc2ccccc2C(=O)NCC(=O)O)cc1 [ONO-5046, N-[2-[4-(2,2-dimethylpropionyloxy)-phenylsulfonylamino]benzoyl]aminoacetic acid]
Neutrophil elastase activity [2]: inhibits

NC(=O)C1=C(O)C[C@@H]2C[C@@H]3Cc4cccc(O)c4C(=O)C3=C(O)[C@]2(O)C1=O [COL-3, 6-demethyl-6-deoxy-4-de(dimethylamino)tetracycline]
Number of neutrophils sequestered in the lung ([3]; SMA+FC and SMA+FC+COL-3 groups vs Control Group, morphometric assessment): increased equally
Decrease in hyline membranes [3, 20]: 94%
Reduction in alveolar edema [3, 20]: 62%
Decrease in lung water ([3]; pig, in vivo): 41%
Increase in IL-10 concentration in BALF [4]: blocked the increase
MMP-9 in BALF [5]: inhibited
Increase in interleukin-6 concentration in BALF [6]: blocked the increase
Neutrophil elastase in BALF [7]: inhibited
Reduction in BALF elastase activity [7]: 87%
Increase in IL-8 concentration in BALF [8]: blocked the increase
Decrease in bronchoalveolarlavage fluid (BALF) protein concentration [9]: 51%
Lung water (W/D weight ratio) ([10]; CLP+COL-3 (MD), second dose at 24 hours post CLP): reduced edema to Sham CLP levels; also recorded: further reduced
Lung water (W/D weight ratio) ([10]; CLP+COL-3 (SD) vs CLP+CMC): significantly reduced
Lung water or edema ([10]; COL-3 administration, dose dependent manner, vs CLP+CMC): significantly reduced
Number of neutrophils sequestered in the lung ([11]; CLP+COL-3 (MD) vs CLP+CMC): no significant differences
Number of thickened alveolar walls ([11]; CLP+COL-3 (MD) vs CLP+CMC): significantly reduced
Intra-alveolar edema fluid ([11]; CLP+COL-3 (MD), second dose, vs CLP+CMC): significant reduction
Intra-alveolar edema fluid ([11]; CLP+COL-3 (SD) vs CLP+CMC): reduced in the CLP+COL-3 (SD) group as compared to the CLP+CMC group, but was not statistically significant
Number of neutrophils sequestered in the lung ([11]; CLP+COL-3 (SD) vs CLP+CMC): no significant differences
Number of thickened alveolar walls ([11]; CLP+COL-3 (SD) vs CLP+CMC): significantly reduced
Seven day survival rate ([12]; CLP+COL-3 (MD), repeat dose at 24 hours post CLP, p<0.05 vs CLP+CMC and CLP+COL-3 (SD)): enhanced survival benefit
Mortality at 168 hours (7 days) ([12]; CLP+COL-3 (MD): 30 mg/kg at surgery and at 24 hours post CLP): 33%
Seven day survival rate ([12]; CLP+COL-3 (SD) vs CLP+CMC, p<0.05): significant improvement in survival
Mortality at 168 hours (7 days) ([12]; CLP+COL-3 (SD): single prophylactic dose 30 mg/kg oral gavage at surgery): 54%
Survival with delayed administration ([12]; COL-3 given as much as 12 hours following CLP): significantly improve survival
Survival of sham animals ([12]; Sham CLP+COL-3, 30 mg/kg oral gavage, 168 hours): all survived
Improvement in A-a gradient ([13]; SMA+FC+COL-3 vs SMA+FC group): 64%
Improvement in lung plateau pressure ([13]; SMA+FC+COL-3 vs SMA+FC group): 52%
Improvement in pulmonary compliance ([13]; SMA+FC+COL-3 vs SMA+FC group): 344%
Increase in PaO2/FiO2 ratio ([13]; SMA+FC+COL-3 vs SMA+FC group): 204%
Reduction in pulmonary shunt fraction ([13]; SMA+FC+COL-3 vs SMA+FC group): 80%
Development of ARDS ([13]; lung compliance, PaO2/FiO2 ratio, shunt fraction, lung water, histology not significantly different from Control Group): completely prevented
Lung tissue level of MMP-9 [14, 21]: further reduced the level of MMP-9 to Sham CLP levels; also recorded: significantly reduced
Lung tissue level of MMP-9 ([14]; CLP+COL-3 (SD) vs CLP+CMC): reduced MMP-9 levels compared to the CLP+CMC group, but was not statistically significant
Alveolar tissue level of MMP-9 [14, 22]: significantly reduced
Lung tissue level of MMP-2 [15, 21]: further reduction
Lung tissue level of MMP-2 ([15]; CLP+COL-3 (SD) vs CLP+CMC): significantly reduced
Alveolar tissue level of MMP-2 [15, 22]: significantly reduced
Interleukin-1 concentration [16]: not significantly different
Blood COL-3 concentration ([17]; Day 1): 3.1 ± 0.3 µg/mL
Blood COL-3 concentration ([17]; Day 2): 4.9 ± 1.0 µg/mL
Blood COL-3 concentration ([17]; Day 3): 3.1 ± 1.0 µg/mL

CN(C)[C@@H]1C(O)=C(C(N)=O)C(=O)[C@@]2(O)C(O)=C3C(=O)c4c(O)cccc4[C@@](C)(O)[C@H]3C[C@@H]12 [tetracycline, Tetracycline]
Plasma antibiotic threshold level [18]: 0.5 µg/mL

CN(C)[C@@H]1C(O)=C(C(N)=O)C(=O)[C@@]2(O)C(O)=C3C(=O)c4c(O)cccc4[C@@](C)(O)[C@H]3C[C@@H]12 [tetracycline HCl]
Peak plasma concentration [19]: approximately 3 μg/ml
